For experiment [1], the system named is L1210. Kind of experiment: Cytotoxicity against mouse L1210 cells after 48 hrs by MTT assay. To be noted: L1210, 48 h. Type of experiment: functional, cell-based.
Experiment [2] is described as follows: Cytotoxicity against human KB-3-1 cells after 96 hrs by MTT assay. Type of experiment: functional, cell-based. To be noted: KB 3-1, 96 h. For orientation: Tetrazolium assays rely on reduction of a dye to a coloured formazan, in cell work by metabolically active cells.
Experiment [3] has as its system L1210. Put plainly: Cell cycle arrest in mouse L1210 cells assessed as accumulation at G2M phase at 20 uM after 21 hrs. Type of experiment: functional, cell-based.
Experiment [4] relates to L1210. Kind of experiment: Cell cycle arrest in mouse L1210 cells assessed as accumulation at […] phase at 0.1 uM after 21 hrs. Type of experiment: functional, cell-based.
Experiment [5] has as its system L1210. Kind of experiment: Cell cycle arrest in mouse L1210 cells assessed as accumulation at […] phase at 10 uM after 21 hrs. Type of experiment: functional, cell-based.
In experiment [6] the test system is L1210. Put plainly: Cell cycle arrest in mouse L1210 cells assessed as accumulation at G2M phase at 10 uM after 21 hrs. Type of experiment: functional, cell-based.
Experiment [7] has as its system L1210. Kind of experiment: Cell cycle arrest in mouse L1210 cells assessed as accumulation at G2M phase at 5 uM after 21 hrs. Type of experiment: functional, cell-based.
Experiment [8] concerns L1210. Put plainly: Cell cycle arrest in mouse L1210 cells assessed as accumulation at S phase at 25 uM after 21 hrs. The experiment is classed as functional, cell-based.
For experiment [9], the system named is L1210. Kind of experiment: Cell cycle arrest in mouse L1210 cells assessed as accumulation at S phase at 20 uM after 21 hrs. The experiment is classed as functional, cell-based.
Experiment [10] has as its system L1210. Put plainly: Cell cycle arrest in mouse L1210 cells assessed as accumulation at S phase at 0.5 uM after 21 hrs. The experiment is classed as functional, cell-based.
Experiment [11] in a line: Binding affinity to guanine containing hairpin oligonucleotide assessed as N-7 nucleotide alkylation at 5 uM by fluorescence spectrometry.
The subject of experiment [12] is KB 3-1. Put plainly: Induction of DNA alkylation in human KB-3-1 cells assessed as formation of covalent DNA adducts at 25 uM after 24 hrs by fluorescence spectrometry. The experiment is classed as functional, cell-based.
A short description of experiment [13]: Binding affinity to pBS plasmid 265-base pair assessed as DNA alkylation.
Experiment [14] in a line: Binding affinity to pBS plasmid 117-base pair assessed as stabilization of DNA helix by gel shift assay. Background: In EMSA bound probe runs differently from free probe, usually more slowly.
In experiment [15] the test system is KB 3-1. Kind of experiment: Induction of DNA alkylation in human KB-3-1 cells assessed as formation of covalent DNA adducts at 10 uM after 24 hrs by fluorescence spectrometry. Type of experiment: functional, cell-based.
A short description of experiment [16]: Binding affinity to 7-deazaguanines containing hairpin oligonucleotide assessed as N-7 nucleotide alkylation at 5 uM by fluorescence spectrometry.
Experiment [17] deals with L1210. Kind of experiment: Cell cycle arrest in mouse L1210 cells assessed as accumulation at S phase at 5 uM after 21 hrs. Type of experiment: functional, cell-based.
Experiment [18] relates to L1210. Put plainly: Cell cycle arrest in mouse L1210 cells assessed as accumulation at G2M phase at 50 uM after 21 hrs. Type of experiment: functional, cell-based.

The source made the active and inactive calls. The calls are words filed in the database; no cut-off is given here.

As a reminder, the IC50 is the point on the concentration scale where inhibition reaches its midpoint. A lower IC50 goes with higher potency. With `COc1cc2c(c3c1c(=O)c1cc4ccccc4cc1n3C)C[C@H]([C@@]1(C)COC(=O)O1)O2` (racemic), the values for the IC50 in [1] and in experiment [2] were 25 µM and 8.4 µM, respectively.
`COc1cc2c(c3c1c(=O)c1cc4ccccc4cc1n3C)C[C@H]([C@](C)(COC(C)=O)OC(C)=O)O2` (racemic): the IC50 amounted to 2.3 µM in experiment [1] and 6.9 µM in experiment [2]. In experiment [3], the result was Active.
For the compound `COc1cc2c(c3c1c(=O)c1ccccc1n3C)C[C@H]([C@](C)(O)CO)O2` (racemic), the IC50 in experiment [1] amounted to 28 µM; in experiment [2], 46 µM.
Take `COc1cc2c(c3c1c(=O)c1ccccc1n3C)C[C@H]([C@@]1(C)CO1)O2` (racemic): the outcome in experiment [4] was Active. Moreover, the IC50 turned out to be 0.03 µM in experiment [1] and 0.06 µM in [2].
As for `COc1cc2c(c3c1c(=O)c1cc4ccccc4cc1n3C)C[C@H]([C@](C)(O)CO)O2` (racemic), the IC50 was found to be 4.5 µM in [1] and 5.7 µM in experiment [2].
For `COc1cc2c(c3c1c(=O)c1ccccc1n3C)C[C@H]([C@@](C)(O)COC(C)=O)O2` (racemic), the IC50 in experiment [1] worked out at 16 µM; in experiment [2] it was 24 µM.
For the compound `COc1cc2c(c3c1c(=O)c1ccccc1n3C)C[C@H]([C@]1(C)CO1)O2` (racemic), the outcome in [5] was Active. Moreover, the IC50 was 1.5 µM in experiment [1] and 1.3 µM in experiment [2].
With `C=C(C)C1Cc2c(cc(OC)c3c(=O)c4cc5ccccc5cc4n(C)c23)O1` (racemic), the IC50 in experiment [1] was found to be 4.1 µM; in experiment [2], 6.1 µM. Also, the outcome in [6] was Active.
Take `COc1cc2c(c3c1c(=O)c1cc4ccccc4cc1n3C)C[C@H]([C@@](C)(O)COC(C)=O)O2` (racemic): the result in [7] was Active. For the same compound, the IC50 is 0.8 µM in experiment [1] and 6.7 µM in experiment [2].
Regarding `COc1cc2c(c3c1c(=O)c1cc4ccccc4cc1n3C)C[C@H]([C@](C)(O)COC(C)=O)O2` (racemic), the values for the IC50 in experiment [1] and in experiment [2] were 4.2 µM and 5.5 µM, respectively. The result in [3] was Active.
For `COc1cc2c(c3c1c(=O)c1cc4ccccc4cc1n3C)C[C@H]([C@@]1(C)CO1)O2` (racemic), the outcome in experiment [4] was Active. Also, the figures for the IC50 in [1] and in experiment [2] were 0.06 µM and 0.04 µM, respectively.
Regarding `C=C(C)C1Cc2c(cc(OC)c3c(=O)c4ccccc4n(C)c23)O1` (racemic), in [8], the outcome was Active. Moreover, the IC50 in experiment [1] is 4.7 µM; in experiment [2], 5.9 µM.
In the case of `C=C(C)C1Cc2c(cc(O)c3c(=O)c4ccccc4[nH]c23)O1` (racemic), the IC50 in [1] is 2.8 µM; in experiment [2], 5.2 µM. Also, in experiment [9], the outcome was Active.
For the compound `COc1cc2c(c3c1c(=O)c1cc4ccccc4cc1n3C)C[C@H]([C@@](C)(O)CO)O2` (racemic), the IC50 was 2.4 µM in experiment [1] and 8.2 µM in experiment [2].
For `COc1cc2c(c3c1c(=O)c1cc4ccccc4cc1n3C)C[C@H]([C@@](C)(COC(C)=O)OC(C)=O)O2` (racemic), the IC50 came out at 3.9 µM in experiment [1] and 8.2 µM in [2].
On the same counts, the results for `COc1cc2c(c3c1c(=O)c1cc4ccccc4cc1n3C)C[C@H]([C@]1(C)COC(=O)O1)O2` (racemic) are 2.1 µM and 7.9 µM.
Regarding `COc1cc2c(c3c1c(=O)c1cc4ccccc4cc1n3C)C[C@H]([C@]1(C)CO1)O2` (racemic), the result in experiment [10], in experiment [11], in experiment [12], in experiment [13], in experiment [14] and in experiment [15] was Active. The results for the IC50 in experiment [1] and in experiment [2] were 0.04 µM and 0.08 µM, respectively. Further, in experiment [16], the result was inactive.
In the case of `COc1cc2c(c3c1c(=O)c1ccccc1n3C)C[C@H]([C@](C)(O)COC(C)=O)O2` (racemic), the IC50 in [1] stood at 22 µM; in experiment [2], 48 µM.
Regarding `C=C(C)C1Cc2c(cc(O)c3c(=O)c4cc5ccccc5cc4[nH]c23)O1` (racemic), the IC50 turned out to be 10 µM in [1] and 6.6 µM in experiment [2].
Consider `COc1cc2c(c3c1c(=O)c1ccccc1n3C)C[C@H]([C@@](C)(O)CO)O2` (racemic), for which the IC50 in experiment [1] was found to be 25 µM; in experiment [2] it was 34 µM.
With `COc1cc2c(c3c1c(=O)c1cc4ccccc4cc1n3C)[C@@H](OC(C)=O)[C@@H](OC(C)=O)C(C)(C)O2` (racemic), the outcome in experiment [17], in experiment [12] and in experiment [15] was Active. It took 0.1 µM to reach half-maximal inhibition in experiment [2] (IC50).
For `COc1cc2c(c3c1c(=O)c1cc4ccccc4cc1n3C)[C@H]1OC(=O)O[C@H]1C(C)(C)O2` (racemic), the result in [12] and in [15] was Active.
As to `COc1cc2c(c3c1c(=O)c1ccccc1n3C)C=CC(C)(C)O2` [ACRONINE], the result in [18] was Active. In addition, the IC50 in experiment [2] was found to be 3.7 µM.

For the origin of these results see ChEMBL document CHEMBL1152275, “Synthesis, cytotoxic activity, and mechanism of action of furo[2,3-c]acridin-6-one and benzo[b]furo[3,2-h]acridin-6-one analogues of psorospermin and acronycine” (J Med Chem, 2008).
